[ ]: non-standard residue; d: D form. Ahx = NCCCCCC(=O)O

T1 sequence (P10415 whole entry, the tested form may be a part): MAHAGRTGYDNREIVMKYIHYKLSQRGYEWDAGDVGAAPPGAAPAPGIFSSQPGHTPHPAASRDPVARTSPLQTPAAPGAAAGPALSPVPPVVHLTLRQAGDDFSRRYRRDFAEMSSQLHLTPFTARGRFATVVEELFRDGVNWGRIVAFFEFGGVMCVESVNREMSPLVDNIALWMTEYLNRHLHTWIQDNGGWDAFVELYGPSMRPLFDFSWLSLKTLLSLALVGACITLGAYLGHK

One assay addresses T1, Bcl-2 (Homo sapiens, UniProt P10415). Description: Bcl-2 conformational change, anti-Bcl-2/BH3 antibody staining of HEK293T cells transfected with Bcl-2. The class given is cell-based. Further details: expressed in transfected cells; host or cells: HEK293T. The settings on record: flow cytometry. As to the method:
Such a Bcl-2 conformation is recognized by an anti-Bcl-2 antibody raised against the Bcl-2 BH3 domain. To determine whether NuBCP-9 induced a Bcl-2 conformational change, flow cytometric assays were conducted which HEK293T cells transfected with Bcl-2 were exposed to NuBCPs and subsequently stained with the anti-Bcl-2/BH3 antibody.
As for “Smac-peptide-r8: Smac peptide conjugated with r8, apoptosis-inducing comparison peptide (Ac-AVPIAQKC[Ahx][dR][dR][dR][dR][dR][dR][dR][dR]-NH2; also: Cys thiol joined to chloroacetyl-Ahx by thioether) [reference compound]”, the “Bcl-2 immunofluorescence by anti-Bcl-2/BH3 antibody” value is on record as “did not show any Bcl-2 immunofluorescence”.

The test system of the next assay is H460 lung cancer cells. Nature of the assay: Apoptosis in H460 lung cancer cells. The class given is cell-based. The settings on record: alanine scan, H460 lung cancer cells.
Consider “acetyl-ASRSLHSLLGXmmrrr-amide [SEQ ID NO: 61]”, for which the “apoptotic effect of alanine-substituted Nur77-9” value (“apoptotic effect” for short) was “largely impaired”.

Regarding “acetyl-FSRSLHSALGXrrrrrrrr-amide (Ac-FSRSLHSALG[Ahx][dR][dR][dR][dR][dR][dR][dR][dR]-NH2; SMILES CC(=O)N[C@@H](Cc1ccccc1)C(=O)N[C@@H](CO)C(=O)N[C@@H](CCCNC(=N)N)C(=O)N[C@@H](CO)C(=O)N[C@@H](CC(C)C)C(=O)N[C@@H](Cc1c[nH]cn1)C(=O)N[C@@H](CO)C(=O)N[C@@H](C)C(=O)N[C@@H](CC(C)C)C(=O)NCC(=O)NCCCCCC(=O)N[C@H](CCCNC(=N)N)C(=O)N[C@H](CCCNC(=N)N)C(=O)N[C@H](CCCNC(=N)N)C(=O)N[C@H](CCCNC(=N)N)C(=O)N[C@H](CCCNC(=N)N)C(=O)N[C@H](CCCNC(=N)N)C(=O)N[C@H](CCCNC(=N)N)C(=O)N[C@H](CCCNC(=N)N)C(N)=O) [SEQ ID NO: 63]”, the “apoptotic effect” value is on record as “largely impaired”.

Take “acetyl-FSRSAHSLLGXrrrrrrrr-amide (Ac-FSRSAHSLLG[Ahx][dR][dR][dR][dR][dR][dR][dR][dR]-NH2; SMILES CC(=O)N[C@@H](Cc1ccccc1)C(=O)N[C@@H](CO)C(=O)N[C@@H](CCCNC(=N)N)C(=O)N[C@@H](CO)C(=O)N[C@@H](C)C(=O)N[C@@H](Cc1c[nH]cn1)C(=O)N[C@@H](CO)C(=O)N[C@@H](CC(C)C)C(=O)N[C@@H](CC(C)C)C(=O)NCC(=O)NCCCCCC(=O)N[C@H](CCCNC(=N)N)C(=O)N[C@H](CCCNC(=N)N)C(=O)N[C@H](CCCNC(=N)N)C(=O)N[C@H](CCCNC(=N)N)C(=O)N[C@H](CCCNC(=N)N)C(=O)N[C@H](CCCNC(=N)N)C(=O)N[C@H](CCCNC(=N)N)C(=O)N[C@H](CCCNC(=N)N)C(N)=O) [SEQ ID NO: 62]”: the “apoptotic effect” value is recorded as “largely impaired”.

Turning to “acetyl-FSRSLHSLAGXrrrrrrrr-amide (Ac-FSRSLHSLAG[Ahx][dR][dR][dR][dR][dR][dR][dR][dR]-NH2; SMILES CC(=O)N[C@@H](Cc1ccccc1)C(=O)N[C@@H](CO)C(=O)N[C@@H](CCCNC(=N)N)C(=O)N[C@@H](CO)C(=O)N[C@@H](CC(C)C)C(=O)N[C@@H](Cc1c[nH]cn1)C(=O)N[C@@H](CO)C(=O)N[C@@H](CC(C)C)C(=O)N[C@@H](C)C(=O)NCC(=O)NCCCCCC(=O)N[C@H](CCCNC(=N)N)C(=O)N[C@H](CCCNC(=N)N)C(=O)N[C@H](CCCNC(=N)N)C(=O)N[C@H](CCCNC(=N)N)C(=O)N[C@H](CCCNC(=N)N)C(=O)N[C@H](CCCNC(=N)N)C(=O)N[C@H](CCCNC(=N)N)C(=O)N[C@H](CCCNC(=N)N)C(N)=O) [SEQ ID NO: 64]”, the “apoptotic effect” value is on record as “largely impaired”.

The next assay has as its target T1, Bcl-2. Description: Co-immunoprecipitation with Bcl-2 in HEK293T cells. The class given is binding. On the set-up: expressed in transfected cells; host or cells: HEK293T. The settings on record: peptide added. How it is done:
Nur77 peptide binds anti-apoptotic Bcl-2 family members. Nur77-peptide binds Bcl-B, Bfl-1, and Bcl-2, but not Mcl-1 and Bcl-xL. […] The expression vector for the GFP-Nur77/489-497 fusion was transfected into HEK293T cells together with or without the indicated expression vector for myc-tagged Bcl-2 family member. Cell lysates were prepared and analyzed for interaction of Nur77/489-497 with Bcl-2 family members by co-immunoprecipitation assay using anti-Myc antibody. Immunoprecipitates were then separated on SDS/PAGE and immunoblotted using anti-GFP antibody. […] Nur77/Bcl-2 interaction assays—Reporter gene assays using NurRE-tk-CAT in CV-1 cells, and GST pull-down assay were described previously (Li, et al. 2000 Science 289:1159-1164). For the mammalian two-hybrid assays, CV-1 cells were co-transfected with pcDNA-Gal4TAD-Nur77 or pcDNA-Gal4TAD-Nur77/ΔDBD and pcDNA-Gal4 DBD-Bcl-2/ΔTM along with a luciferase reporter gene driven by four copies of the Gal-4-binding site. The cells were harvested and reporter gene activity was measured. For Co-IP assays, HEK293T cells were transiently transfected with various expression plasmids using a modified calcium phosphate precipitation method (Wu et al, 1997) in the presence of caspase inhibitors (zVAD-fmk) to prevent degradation of Nur77 protein due to apoptosis. Cells were suspended in lysis buffer (50 mM Tris-HCl, PH7.4; 150 mM NaCl; 20 mM EDTA; 1% NP-40; 1 mM PMSF; 50 μg/ml Leupeptin; […]; 0.1 mM Na3VO4; and 1 mM DTT). Cells extracts were cleared by incubation with the Protein A/G plus Agarose beads (Santa Cruz) and then incubated with appropriate antibody and 30 μl of Protein A or G plus Agarose beads overnight at 4° C. […] Immunoreactive products were detected by chemiluminescence with an enhanced chemiluminescence system (ECL) (Amersham).
“Smac-peptide-r8: Smac peptide conjugated with r8, apoptosis-inducing comparison peptide (Ac-AVPIAQKC[Ahx][dR][dR][dR][dR][dR][dR][dR][dR]-NH2; also: Cys thiol joined to chloroacetyl-Ahx by thioether) [reference compound]”: the “inhibition of co-precipitation of GFP-Nur77/489-497 with Bcl-2” value is given as “not”.

Test system in a further assay: not listed separately
Description: Induction of apoptosis by Nur77 peptides, cell line not stated. The class given is cell-based.
Settings: not given
As to the method:
Apoptosis assays—For nuclear morphological change analysis, cells were trypsinized, washed with PBS, fixed with 3.7% paraformaldehyde, and stained with DAPI (4,6-diamidino-2-phenylindole) (50 μg/ml) to visualize the nuclei by UV-microscopy. The percentages of apoptotic cells were determined by counting 300 GFP-positive cells, scoring cells having nuclear fragmentation and/or chromatin condensation.
For the substance “acetyl------------FYLKLEDLVGXrrrrrrrr-amide (Ac-FYLKLEDLVG[Ahx][dR][dR][dR][dR][dR][dR][dR][dR]-NH2; SMILES CC(=O)N[C@@H](Cc1ccccc1)C(=O)N[C@@H](Cc1ccc(O)cc1)C(=O)N[C@@H](CC(C)C)C(=O)N[C@@H](CCCCN)C(=O)N[C@@H](CC(C)C)C(=O)N[C@@H](CCC(=O)O)C(=O)N[C@@H](CC(=O)O)C(=O)N[C@@H](CC(C)C)C(=O)N[C@H](C(=O)NCC(=O)NCCCCCC(=O)N[C@H](CCCNC(=N)N)C(=O)N[C@H](CCCNC(=N)N)C(=O)N[C@H](CCCNC(=N)N)C(=O)N[C@H](CCCNC(=N)N)C(=O)N[C@H](CCCNC(=N)N)C(=O)N[C@H](CCCNC(=N)N)C(=O)N[C@H](CCCNC(=N)N)C(=O)N[C@H](CCCNC(=N)N)C(N)=O)C(C)C) [SEQ ID NO: 18]”, the induction of apoptosis entry is given as “apoptotic”.

As for “acetyl---F——L_LLGXrrrrrrrr-amide (Ac-FLLLG[Ahx][dR][dR][dR][dR][dR][dR][dR][dR]-NH2; SMILES CC(=O)N[C@@H](Cc1ccccc1)C(=O)N[C@@H](CC(C)C)C(=O)N[C@@H](CC(C)C)C(=O)N[C@@H](CC(C)C)C(=O)NCC(=O)NCCCCCC(=O)N[C@H](CCCNC(=N)N)C(=O)N[C@H](CCCNC(=N)N)C(=O)N[C@H](CCCNC(=N)N)C(=O)N[C@H](CCCNC(=N)N)C(=O)N[C@H](CCCNC(=N)N)C(=O)N[C@H](CCCNC(=N)N)C(=O)N[C@H](CCCNC(=N)N)C(=O)N[C@H](CCCNC(=N)N)C(N)=O) [SEQ ID NO: 40]”, the induction of apoptosis entry is on record as “apoptotic”.

As for “acetyl------------llshlsrsfGXrrrrrrrr-amide (Ac-[dL][dL][dS][dH][dL][dS][dR][dS][dF]G[Ahx][dR][dR][dR][dR][dR][dR][dR][dR]-NH2; SMILES CC(=O)N[C@H](CC(C)C)C(=O)N[C@H](CC(C)C)C(=O)N[C@H](CO)C(=O)N[C@H](Cc1c[nH]cn1)C(=O)N[C@H](CC(C)C)C(=O)N[C@H](CO)C(=O)N[C@H](CCCNC(=N)N)C(=O)N[C@H](CO)C(=O)N[C@H](Cc1ccccc1)C(=O)NCC(=O)NCCCCCC(=O)N[C@H](CCCNC(=N)N)C(=O)N[C@H](CCCNC(=N)N)C(=O)N[C@H](CCCNC(=N)N)C(=O)N[C@H](CCCNC(=N)N)C(=O)N[C@H](CCCNC(=N)N)C(=O)N[C@H](CCCNC(=N)N)C(=O)N[C@H](CCCNC(=N)N)C(=O)N[C@H](CCCNC(=N)N)C(N)=O) [Nur77/1(retro-inverso)]”, the induction of apoptosis entry is “apoptotic”.

“acetyl------------FGDWIDSILGXrrrrrrrr-amide (Ac-FGDWIDSILG[Ahx][dR][dR][dR][dR][dR][dR][dR][dR]-NH2; SMILES CC[C@H](C)[C@H](NC(=O)[C@H](CO)NC(=O)[C@H](CC(=O)O)NC(=O)[C@@H](NC(=O)[C@H](Cc1c[nH]c2ccccc12)NC(=O)[C@H](CC(=O)O)NC(=O)CNC(=O)[C@H](Cc1ccccc1)NC(C)=O)[C@@H](C)CC)C(=O)N[C@@H](CC(C)C)C(=O)NCC(=O)NCCCCCC(=O)N[C@H](CCCNC(=N)N)C(=O)N[C@H](CCCNC(=N)N)C(=O)N[C@H](CCCNC(=N)N)C(=O)N[C@H](CCCNC(=N)N)C(=O)N[C@H](CCCNC(=N)N)C(=O)N[C@H](CCCNC(=N)N)C(=O)N[C@H](CCCNC(=N)N)C(=O)N[C@H](CCCNC(=N)N)C(N)=O) [SEQ ID NO: 16]”: the induction of apoptosis entry is reported as “apoptotic”.

As for “acetyl------------FAALSALVLGXrrrrrrrr-amide (Ac-FAALSALVLG[Ahx][dR][dR][dR][dR][dR][dR][dR][dR]-NH2; SMILES CC(=O)N[C@@H](Cc1ccccc1)C(=O)N[C@@H](C)C(=O)N[C@@H](C)C(=O)N[C@@H](CC(C)C)C(=O)N[C@@H](CO)C(=O)N[C@@H](C)C(=O)N[C@@H](CC(C)C)C(=O)N[C@H](C(=O)N[C@@H](CC(C)C)C(=O)NCC(=O)NCCCCCC(=O)N[C@H](CCCNC(=N)N)C(=O)N[C@H](CCCNC(=N)N)C(=O)N[C@H](CCCNC(=N)N)C(=O)N[C@H](CCCNC(=N)N)C(=O)N[C@H](CCCNC(=N)N)C(=O)N[C@H](CCCNC(=N)N)C(=O)N[C@H](CCCNC(=N)N)C(=O)N[C@H](CCCNC(=N)N)C(N)=O)C(C)C) [SEQ ID NO: 17]”, the induction of apoptosis entry is given as “apoptotic”.

As to “acetyl------------LLSHLSRSFGXrrrrrrrr-amide (Ac-LLSHLSRSFG[Ahx][dR][dR][dR][dR][dR][dR][dR][dR]-NH2; not fully specified; printed as acetyl------------LLSHLSRSFGXrrrrrrrr-amide) [Nur77/1 (inverso)]”, the induction of apoptosis result was “apoptotic”.
